Experiment [1] concerns the target T1, Amine oxidase [flavin-containing] A (Rattus norvegicus, UniProt P21396).
T1 sequence (P21396 whole entry): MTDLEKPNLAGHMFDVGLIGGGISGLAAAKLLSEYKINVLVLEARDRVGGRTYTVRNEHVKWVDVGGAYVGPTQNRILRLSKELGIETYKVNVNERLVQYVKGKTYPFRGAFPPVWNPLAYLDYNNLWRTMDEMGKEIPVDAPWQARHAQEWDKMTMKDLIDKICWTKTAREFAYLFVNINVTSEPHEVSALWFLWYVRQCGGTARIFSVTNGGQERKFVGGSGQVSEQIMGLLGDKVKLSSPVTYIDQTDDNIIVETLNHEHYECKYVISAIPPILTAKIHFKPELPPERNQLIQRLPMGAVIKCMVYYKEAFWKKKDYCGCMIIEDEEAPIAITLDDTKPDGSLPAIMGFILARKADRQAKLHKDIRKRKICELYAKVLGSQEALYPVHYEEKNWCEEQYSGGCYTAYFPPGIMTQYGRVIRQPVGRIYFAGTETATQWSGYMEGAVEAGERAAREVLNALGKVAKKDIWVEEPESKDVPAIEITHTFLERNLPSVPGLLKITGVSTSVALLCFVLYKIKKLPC
Kind of experiment: Inhibition of rat brain MAO-A using kynuramine substrate […] at 10 uM by spectrophotometric assay.

Experiment [2] has as its target T2, Amine oxidase [flavin-containing] B (Rattus norvegicus, UniProt P19643).
T2 sequence (P19643 whole entry): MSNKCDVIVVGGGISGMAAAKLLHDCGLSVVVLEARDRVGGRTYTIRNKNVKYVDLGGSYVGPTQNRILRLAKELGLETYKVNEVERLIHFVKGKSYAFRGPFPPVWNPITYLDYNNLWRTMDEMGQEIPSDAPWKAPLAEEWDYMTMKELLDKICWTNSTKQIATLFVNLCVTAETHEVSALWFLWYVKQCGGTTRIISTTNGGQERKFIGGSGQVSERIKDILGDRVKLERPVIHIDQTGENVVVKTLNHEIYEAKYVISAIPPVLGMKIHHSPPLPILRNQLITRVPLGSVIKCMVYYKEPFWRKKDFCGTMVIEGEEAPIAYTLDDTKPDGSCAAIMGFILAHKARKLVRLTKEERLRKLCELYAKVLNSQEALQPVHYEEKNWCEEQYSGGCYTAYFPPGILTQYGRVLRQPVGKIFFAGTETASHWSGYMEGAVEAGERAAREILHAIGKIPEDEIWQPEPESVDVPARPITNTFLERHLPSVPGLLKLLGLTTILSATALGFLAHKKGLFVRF
Kind of experiment: Inhibition of rat brain MAO-B using kynuramine substrate […] by spectrophotometric assay.

Experiment [3] deals with Acetylcholinesterase (Electrophorus electricus, UniProt O42275). Kind of experiment: Inhibition of electric eel AChE by spectrophotometric Ellman's method.
A further experiment concerns the target Cholinesterase (Equus caballus, UniProt P81908). Kind of experiment: Inhibition of equine serum BuChE by spectrophotometric Ellman's method.
In experiment [4] the target is Cholinesterase (Equus caballus) (UniProt P81908). Kind of experiment: Inhibition of equine serum BuChE at 10 uM by spectrophotometric Ellman's method.
The target in experiment [5] is T3, Amine oxidase [flavin-containing] A (Homo sapiens, UniProt P21397).
T3 sequence (P21397 whole entry): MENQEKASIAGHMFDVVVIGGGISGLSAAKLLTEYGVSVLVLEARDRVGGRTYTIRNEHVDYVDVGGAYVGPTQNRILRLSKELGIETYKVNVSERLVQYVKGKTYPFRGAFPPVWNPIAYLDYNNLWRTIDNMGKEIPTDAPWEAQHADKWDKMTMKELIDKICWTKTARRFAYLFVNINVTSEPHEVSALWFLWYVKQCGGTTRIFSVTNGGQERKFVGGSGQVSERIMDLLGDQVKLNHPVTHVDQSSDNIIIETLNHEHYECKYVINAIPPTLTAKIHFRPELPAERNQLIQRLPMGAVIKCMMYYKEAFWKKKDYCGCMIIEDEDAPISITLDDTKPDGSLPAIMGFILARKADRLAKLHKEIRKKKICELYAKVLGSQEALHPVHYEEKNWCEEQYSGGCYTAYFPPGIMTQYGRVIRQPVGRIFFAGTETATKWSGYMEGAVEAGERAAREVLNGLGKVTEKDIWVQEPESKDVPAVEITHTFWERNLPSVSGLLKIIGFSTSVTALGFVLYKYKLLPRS
Kind of experiment: Inhibition of human recombinant MAO-A using kynuramine substrate by spectrophotometric assay.

Experiment [6] has as its target T4, Amine oxidase [flavin-containing] B (Homo sapiens, UniProt P27338).
T4 sequence (P27338 whole entry): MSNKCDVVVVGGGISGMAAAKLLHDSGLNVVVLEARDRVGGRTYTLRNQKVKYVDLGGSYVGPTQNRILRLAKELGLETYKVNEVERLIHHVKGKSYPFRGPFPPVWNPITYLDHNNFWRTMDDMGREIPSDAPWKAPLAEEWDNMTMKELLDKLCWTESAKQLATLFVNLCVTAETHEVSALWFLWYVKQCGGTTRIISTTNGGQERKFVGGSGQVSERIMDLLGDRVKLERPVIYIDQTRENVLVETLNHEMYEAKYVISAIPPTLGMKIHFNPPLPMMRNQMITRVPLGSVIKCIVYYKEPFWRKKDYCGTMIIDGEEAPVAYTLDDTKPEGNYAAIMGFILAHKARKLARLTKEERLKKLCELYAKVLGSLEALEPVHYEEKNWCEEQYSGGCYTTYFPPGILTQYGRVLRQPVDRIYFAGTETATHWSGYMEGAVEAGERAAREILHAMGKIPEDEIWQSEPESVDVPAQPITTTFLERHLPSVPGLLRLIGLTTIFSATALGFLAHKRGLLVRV
Description: Inhibition of human recombinant MAO-B using kynuramine substrate by spectrophotometric assay

The target of experiment [7] is Acetylcholinesterase (Homo sapiens, UniProt P22303). Kind of experiment: Inhibition of human recombinant AChE by spectrophotometric Ellman's method.
The target in experiment [8] is T1, Amine oxidase [flavin-containing] A. Kind of experiment: Inhibition of rat brain MAO-A using kynuramine substrate […] by spectrophotometric assay.

The structures appear in SMILES notation.

Chain of Acetylcholinesterase (Homo sapiens, UniProt P22303) (P22303 whole entry): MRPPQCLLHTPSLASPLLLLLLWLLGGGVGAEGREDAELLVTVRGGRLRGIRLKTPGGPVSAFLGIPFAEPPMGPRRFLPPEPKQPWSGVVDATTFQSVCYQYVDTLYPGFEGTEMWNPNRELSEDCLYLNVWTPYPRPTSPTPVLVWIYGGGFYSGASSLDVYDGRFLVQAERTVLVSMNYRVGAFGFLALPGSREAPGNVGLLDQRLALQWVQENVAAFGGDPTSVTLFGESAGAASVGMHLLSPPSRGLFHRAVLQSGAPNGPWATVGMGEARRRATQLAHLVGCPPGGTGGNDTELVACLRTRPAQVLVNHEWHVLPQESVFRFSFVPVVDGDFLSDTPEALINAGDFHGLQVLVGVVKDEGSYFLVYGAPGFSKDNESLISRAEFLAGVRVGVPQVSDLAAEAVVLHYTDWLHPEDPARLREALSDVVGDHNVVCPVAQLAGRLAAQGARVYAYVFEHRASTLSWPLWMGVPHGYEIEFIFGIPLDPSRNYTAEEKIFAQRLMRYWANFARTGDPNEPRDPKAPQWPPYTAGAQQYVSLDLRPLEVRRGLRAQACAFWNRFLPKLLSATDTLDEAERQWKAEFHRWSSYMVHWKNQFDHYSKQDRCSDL
Chain of Cholinesterase (P81908 whole entry): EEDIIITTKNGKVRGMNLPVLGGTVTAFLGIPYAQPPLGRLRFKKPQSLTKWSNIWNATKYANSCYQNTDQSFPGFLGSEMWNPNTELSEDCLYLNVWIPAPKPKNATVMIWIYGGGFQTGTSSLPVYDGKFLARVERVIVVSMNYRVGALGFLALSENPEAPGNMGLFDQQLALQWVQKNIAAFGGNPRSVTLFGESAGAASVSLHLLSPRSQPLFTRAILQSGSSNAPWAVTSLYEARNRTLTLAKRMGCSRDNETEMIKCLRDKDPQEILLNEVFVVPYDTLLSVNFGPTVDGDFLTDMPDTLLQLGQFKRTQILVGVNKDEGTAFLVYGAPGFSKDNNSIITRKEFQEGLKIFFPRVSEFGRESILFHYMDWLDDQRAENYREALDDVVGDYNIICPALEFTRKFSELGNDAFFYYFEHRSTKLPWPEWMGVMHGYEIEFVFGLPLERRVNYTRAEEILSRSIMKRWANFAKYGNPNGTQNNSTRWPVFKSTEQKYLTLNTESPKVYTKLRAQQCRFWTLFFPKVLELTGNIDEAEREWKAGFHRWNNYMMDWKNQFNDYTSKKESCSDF
Chain of Cholinesterase (Equus caballus) (P81908 whole entry): as above
Chain of Acetylcholinesterase (Electrophorus electricus, UniProt O42275) (O42275 whole entry): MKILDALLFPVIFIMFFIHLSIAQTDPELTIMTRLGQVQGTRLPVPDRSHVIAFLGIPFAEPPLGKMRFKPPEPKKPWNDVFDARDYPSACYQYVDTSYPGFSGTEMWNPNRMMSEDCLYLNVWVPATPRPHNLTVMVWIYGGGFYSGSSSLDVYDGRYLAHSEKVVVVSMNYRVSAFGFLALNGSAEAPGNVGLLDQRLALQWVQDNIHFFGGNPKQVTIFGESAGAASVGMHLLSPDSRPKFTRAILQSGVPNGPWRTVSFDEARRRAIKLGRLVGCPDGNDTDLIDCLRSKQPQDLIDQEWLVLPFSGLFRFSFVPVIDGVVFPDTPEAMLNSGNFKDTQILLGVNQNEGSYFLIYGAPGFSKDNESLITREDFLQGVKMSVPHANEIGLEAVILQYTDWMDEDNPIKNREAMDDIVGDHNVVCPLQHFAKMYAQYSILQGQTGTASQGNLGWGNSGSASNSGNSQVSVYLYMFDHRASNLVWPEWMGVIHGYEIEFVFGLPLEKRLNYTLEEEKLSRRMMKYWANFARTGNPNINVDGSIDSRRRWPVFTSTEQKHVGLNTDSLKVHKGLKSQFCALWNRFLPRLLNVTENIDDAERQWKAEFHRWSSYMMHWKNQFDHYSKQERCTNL

With `CN(Cc1ccc(COc2ccc3ccc(=O)oc3c2)cc1)Cc1cccc(Cl)c1`, the inhibition at 10 µM in experiment [1] worked out at 12%. Besides, the IC50 in experiment [2] worked out at 2700 nM; against Acetylcholinesterase [3], 590 nM; on Cholinesterase, 1200 nM.
As to `CN(Cc1ccc(C#N)cc1)Cc1ccc(COc2ccc3c(CO)cc(=O)oc3c2)cc1`, in experiment [1], the inhibition at 10 µM came out at 0%. The IC50 in experiment [2] turned out to be 35 nM; against Acetylcholinesterase [3], 6300 nM; in experiment [5], 4480 nM; in [6] it was 5.7 nM. The molecule further came in with an inhibition in experiment [4] of 23%.
As to `Cc1cc(=O)oc2cc(OCc3ccc(CN(C)Cc4cccc(Cl)c4)cc3)ccc12`, 10 µM produced 0% inhibition in [1]. Moreover, the values for the IC50 (in experiment [2]; on Acetylcholinesterase [3]; at Acetylcholinesterase [7]) were 5000 nM, 120 nM and 1000 nM, respectively. For the same molecule, the inhibition in experiment [4] stood at 47%.
In the case of `Cc1c(C)c2ccc(OCc3ccc(CN(C)Cc4cccc(Cl)c4)cc3)cc2oc1=O`, the inhibition at 10 µM in experiment [1] came out at 7%. The figures for the IC50 (in [2]; against Acetylcholinesterase [3]) were 3400 nM and 660 nM, respectively. The same molecule showed an inhibition in experiment [4] of 48%.
As to `CN(CCc1ccc(COc2ccc3ccc(=O)oc3c2)cc1)Cc1ccccc1`, the IC50 against Acetylcholinesterase [3] was found to be 850 nM; against Cholinesterase, 520 nM.
On to `COc1cccc(CN(C)Cc2ccc(COc3ccc4ccc(=O)oc4c3)cc2)c1`, for which the inhibition at 10 µM in [1] is 20%. Also, the IC50 in experiment [2] was determined as 2900 nM; against Acetylcholinesterase [3] it was 4600 nM; against Cholinesterase, 1400 nM.
For `CCN(CCCCCOc1ccc2c(C)c(C)c(=O)oc2c1)Cc1ccccc1`, the IC50 in experiment [8] is 9500 nM; in experiment [2] it was 7800 nM; against Acetylcholinesterase [3], 750 nM; against Cholinesterase, 940 nM.
`O=c1cc(CO)c2ccc(OCc3ccc(CNCc4ccccc4)cc3)cc2o1` registered an inhibition at 10 µM in [1] of 19%. Moreover, the IC50 is 530 nM in experiment [2], 440 nM on Acetylcholinesterase [3] and 570 nM against Cholinesterase.
In turn, `Cc1cc(=O)oc2cc(OCc3ccc(CN(C)Cc4ccccc4)cc3)ccc12` gave an inhibition at 10 µM in [1] of 10%. The half-inhibitory concentration (IC50) in experiment [2] was found to be 4100 nM; at Acetylcholinesterase [3] it was 180 nM; at Cholinesterase it was 1000 nM; on Acetylcholinesterase [7], 910 nM.
With `Cc1c(C)c2ccc(OCc3ccc(CN(C)Cc4ccc(C#N)cc4)cc3)cc2oc1=O`, the figures for the half-inhibitory concentration (IC50) against Acetylcholinesterase [3] and on Acetylcholinesterase [7] were 4200 nM and 3900 nM, respectively. Moreover, in experiment [4], the inhibition is 18%.
In the case of `CCN(CCCOc1ccc2c(C)c(C)c(=O)oc2c1)Cc1ccccc1`, the IC50 in [8] came out at 7400 nM; in experiment [2], 980 nM; on Acetylcholinesterase [3] it was 360 nM; against Cholinesterase, 4000 nM.
On to `CN(Cc1ccc(C#N)cc1)Cc1ccc(COc2ccc3cc(C#N)c(=O)oc3c2)cc1`, for which, in [1], the inhibition at 10 µM was found to be 0%. Also, in experiment [2], the concentration for half-maximal inhibition (IC50) stood at 990 nM. For the same molecule, the inhibition in [4] is 14%.
For `CN(Cc1ccc(COc2ccc3ccc(=O)oc3c2)cc1)Cc1cccc(C#N)c1`, in [1], 10 µM produced 5% inhibition. Also, the results for the IC50 (in experiment [2]; against Acetylcholinesterase [3]; at Cholinesterase) were 2800 nM, 7400 nM and 4100 nM, respectively.
`Cc1cc2ccc(OCc3ccc(CN(C)Cc4ccccc4)cc3)cc2oc1=O` registered an inhibition at 10 µM in experiment [1] of 0%. The IC50 stood at 2400 nM in experiment [2], 260 nM against Acetylcholinesterase [3], 1100 nM against Cholinesterase and 500 nM at Acetylcholinesterase [7].
With `Cc1c(C)c2ccc(OCCCCN(C)Cc3ccccc3)cc2oc1=O`, the half-maximal inhibitory concentration (IC50) in experiment [8] stood at 6600 nM; in [2] it was 1100 nM; at Acetylcholinesterase [3], 490 nM; against Cholinesterase it was 3700 nM; in experiment [5] it was 480 nM; in [6], 96 nM. Moreover, at Acetylcholinesterase [7], the IC50 is 790 nM.
Regarding `Cc1c(C)c2ccc(OCCCCCN(C)Cc3ccccc3)cc2oc1=O`, the half-maximal inhibitory concentration (IC50) in [8] came out at 4200 nM; in experiment [2], 980 nM; against Acetylcholinesterase [3], 550 nM; on Cholinesterase, 2800 nM.
For `Cc1cc2ccc(OCc3ccc(CN(C)Cc4cccc(Cl)c4)cc3)cc2oc1=O`, 10 µM produced 0% inhibition in [1]. The half-maximal inhibitory concentration (IC50) in experiment [2] came to 4500 nM; against Acetylcholinesterase [3], 1300 nM. The inhibition in experiment [4] stood at 29%.
In [1], `Cc1c(C)c2ccc(OCCCCCN(C)Cc3cccc(Cl)c3)cc2oc1=O` registered an inhibition at 10 µM of 42%. Further, the IC50 in experiment [2] stood at 8900 nM; on Acetylcholinesterase [3] it was 290 nM; at Cholinesterase it was 2600 nM.
In the case of `CN(Cc1ccccc1)Cc1ccc(COc2ccc3ccc(=O)oc3c2)cc1`, the values for the 50% inhibitory concentration (IC50) at Acetylcholinesterase [3], against Cholinesterase and at Acetylcholinesterase [7] were 750 nM, 11000 nM and 950 nM, respectively.
Take `O=c1ccc2ccc(OCc3ccc(CCNCc4ccccc4)cc3)cc2o1`: the IC50 is 4700 nM against Acetylcholinesterase [3] and 640 nM against Cholinesterase.
Molecule `CN(Cc1cccc(Cl)c1)Cc1cccc(COc2ccc3ccc(=O)oc3c2)c1` gave an inhibition at 10 µM in experiment [1] of 17%. Further, the concentration for half-maximal inhibition (IC50) in [2] came to 3400 nM; against Acetylcholinesterase [3], 5700 nM; on Cholinesterase, 310 nM.
For `CN(C)Cc1cccc(COc2ccc3ccc(=O)oc3c2)c1`, the figures for the IC50 (in experiment [8]; in experiment [2]; against Cholinesterase) were 10000 nM, 3200 nM and 5300 nM, respectively.
Molecule `COc1cccc(CN(C)Cc2cccc(COc3ccc4ccc(=O)oc4c3)c2)c1` registered an inhibition at 10 µM in experiment [1] of 14%. Moreover, the values for the 50% inhibitory concentration (IC50) (in [2]; against Acetylcholinesterase [3]; at Cholinesterase) were 2500 nM, 6600 nM and 880 nM, respectively.
For `Cc1c(C)c2ccc(OCCCCCN(C)Cc3cccc(C#N)c3)cc2oc1=O`, the IC50 came out at 5300 nM in experiment [8], 2500 nM in experiment [2], 2300 nM against Acetylcholinesterase [3] and 4100 nM on Cholinesterase.
`CN(Cc1ccccc1)Cc1cccc(COc2ccc3ccc(=O)oc3c2)c1`: the IC50 against Acetylcholinesterase [3] stood at 2300 nM; at Cholinesterase, 1000 nM.
`CN(Cc1cccc(C#N)c1)Cc1cccc(COc2ccc3ccc(=O)oc3c2)c1` returned an inhibition at 10 µM in experiment [1] of 2%. The IC50 in experiment [2] is 3700 nM; at Acetylcholinesterase [3], 4200 nM; against Cholinesterase, 2800 nM.
In [1], `CN(C)Cc1ccc(COc2ccc3ccc(=O)oc3c2)cc1` gave an inhibition at 10 µM of 17%. Moreover, the IC50 stood at 3700 nM in [2], 7100 nM against Acetylcholinesterase [3] and 240 nM on Cholinesterase.
In the same order, the values of `Cc1c(C)c2ccc(OCCCCCN(C)Cc3ccc(C#N)cc3)cc2oc1=O` are 48%, 3300 nM, 2800 nM and 4300 nM.

(Values after ChEMBL document CHEMBL3585305, “Structure-Based Design and Optimization of Multitarget-Directed 2H-Chromen-2-one Derivatives as Potent Inhibitors of Monoamine Oxidase B and Cholinesterases” (J Med Chem, 2015).)
